Patent US8835462B2, “Macrocyclic picolinamides as fungicides” (Dow AgroSciences LLC, priority 2012, dated 2014)
Blank lines part the entries; values can stand above or below the compound they belong to.

Columns and labels:
[1] = test system: Phakopsora pachyrhizi; assay: Asian soybean rust (PHAKPA) fungicidal activity; type: in vivo; settings: 25 ppm; for Disease Control PHAKPA 1 DP: 1 Day Protectant; for Disease Control PHAKPA 2 DC: 2 Day Curative
Protocol: Evaluation of Fungicidal Activity: Asian Soybean Rust (Phakopsora Pachyrhizi; Bayer Code […]) Technical grades of materials were dissolved in acetone, which were then mixed with nine volumes of water containing 0.011% Tween 20. The fungicide solutions were applied onto soybean seedlings using an automated booth sprayer to run-off. All sprayed plants were allowed to air dry prior to further handling. Soybean plants (variety Williams 82) were grown in soil-less Metro mix, with one plant per pot. Two weeks old seedlings were used for testing. Plants were inoculated either 2 days prior to or 1 day after fungicide treatments. Plants were incubated for 24 h in a dark dew room at 22° C. and 100% RH then transferred to a growth room at 23° C. for disease to develop. Disease severity was assessed on the sprayed leaves.

[2] = test system: Cochliobolus sativus; assay: Spot blotch of barley (COCHSA) fungicidal activity; type: in vivo; settings: 100 ppm, 1 Day Protectant
Protocol: Technical grades of materials were dissolved in acetone, which were then mixed with nine volumes of water containing 110 ppm Triton X-100. The fungicide solutions were applied onto wheat seedlings using an automated booth sprayer to run-off. All sprayed plants were allowed to air dry prior to further handling. Wheat plants (variety Yuma) were grown from seed in a greenhouse in 50% mineral soil/50% soil-less Metro mix until the first leaf was fully emerged, with 7-10 seedlings per pot. These plants were inoculated with an aqueous spore suspension of Septoria tritici either prior to or after fungicide treatments. After inoculation the plants were kept in 100% relative humidity (one day in a dark dew chamber followed by two to three days in a lighted dew chamber at 20° C.) to permit spores to germinate and infect the leaf. The plants were then transferred to a greenhouse set at 20° C. for disease to develop. When disease symptoms were fully expressed on the 1st leaves of untreated plants, infection levels were assessed on a scale of 0 to 100 percent disease severity. Percent disease control was calculated using the ratio of disease severity on treated plants relative to untreated plants. Evaluation of Fungicidal Activity: Spot Blotch of Barley (Cochliobolus Sativus; Bayer Code COCHSA) Barley seedlings (variety Harrington) were propagated in soil-less Metro mix, with each pot having 8 to 12 plants, and used for testing when first leaf was fully emerged. Test plants were inoculated with a spore suspension of Cochliobolus sativus 24 hr after fungicide treatments. After inoculation the plants were placed in a dark dew room with 100% RH and temperature of 22° C. for 48 hr. The plants were then kept in a greenhouse set at 24° C. until disease fully developed. Fungicide formulation, application and disease assessment followed the procedures as described in the Example A.

[3] = test system: Rhyncosporium secalis; assay: Barley scald (RHYNSE) fungicidal activity; type: in vivo; settings: 100 ppm, 1 Day Protectant
Protocol: Technical grades of materials were dissolved in acetone, which were then mixed with nine volumes of water containing 110 ppm Triton X-100. The fungicide solutions were applied onto wheat seedlings using an automated booth sprayer to run-off. All sprayed plants were allowed to air dry prior to further handling. Wheat plants (variety Yuma) were grown from seed in a greenhouse in 50% mineral soil/50% soil-less Metro mix until the first leaf was fully emerged, with 7-10 seedlings per pot. These plants were inoculated with an aqueous spore suspension of Septoria tritici either prior to or after fungicide treatments. After inoculation the plants were kept in 100% relative humidity (one day in a dark dew chamber followed by two to three days in a lighted dew chamber at 20° C.) to permit spores to germinate and infect the leaf. The plants were then transferred to a greenhouse set at 20° C. for disease to develop. When disease symptoms were fully expressed on the 1st leaves of untreated plants, infection levels were assessed on a scale of 0 to 100 percent disease severity. Percent disease control was calculated using the ratio of disease severity on treated plants relative to untreated plants. Evaluation of Fungicidal Activity: Barley Scald (Rhyncosporium Secalis; Bayer Code […]) Barley seedlings (variety Harrington) were propagated in soil-less Metro mix, with each pot having 8 to 12 plants, and used in the test when first leaf was fully emerged. Test plants were inoculated by an aqueous spore suspension of Rhyncosporium secalis 24 hr after fungicide treatments. After inoculation the plants were kept in dew room at 20° C. with 100% relative humidity for 48 hr. The plants were then transferred to a greenhouse set at 20° C. for disease to develop. Fungicide formulation, application and disease assessment on the sprayed leaves followed the procedures as described in the Example A.

SMILES: COc1ccnc(C(=O)N[C@H]2COC[C@H](Cc3ccccc3)[C@@H](OCC(C)C)[C@H](C)OC2=O)c1O [Compound 2, N-((3S,7S,8R,9S)-7-benzyl-8-isobutoxy-9-methyl-2-oxo-1,5-dioxonan-3-yl)-3-hydroxy-4-methoxypicolinamide]
- melting point: 126 to 128 °C
- Disease Control PHAKPA 1 DP [1]: A (80-100)
- Disease Control PHAKPA 2 DC [1]: A (80-100)

- melting point: 54 to 58 °C
SMILES: COc1ccnc(C(=O)N[C@H]2COC[C@H](Cc3ccccc3)[C@@H](OCC(C)C)[C@H](C)OC2=O)c1OCOC(=O)C(C)C [Compound 3]
- Disease Control COCHSA 1DP [2]: A (80-100)
- Disease Control PHAKPA 1 DP [1]: A (80-100)
- Disease Control PHAKPA 2 DC [1]: A (80-100)

SMILES: COc1ccnc(C(=O)N[C@H]2COC[C@H](Cc3ccccc3)[C@@H](OCC(C)C)[C@H](C)OC2=O)c1OCOC(=O)C(C)(C)C [Compound 7]
- Disease Control COCHSA 1DP [2]: B (More than 0-Less than 80)
- Disease Control PHAKPA 1 DP [1]: A (80-100)
- Disease Control PHAKPA 2 DC [1]: A (80-100)

SMILES: COc1ccnc(C(=O)N[C@H]2COC[C@H](Cc3ccccc3)[C@@H](OCC(C)C)[C@H](C)OC2=O)c1OCOC(C)=O [Compound 8, (2-((3S,7S,8R,9S)-7-benzyl-8-isobutoxy-9-methyl-2-oxo-1,5-dioxonan-3-ylcarbamoyl)-4-methoxypyridin-3-yloxy)methyl acetate]
- Disease Control COCHSA 1DP [2]: B (More than 0-Less than 80)
- Disease Control RHYNSE 1DP [3]: A (80-100)
- Disease Control PHAKPA 1 DP [1]: A (80-100)
- Disease Control PHAKPA 2 DC [1]: A (80-100)

SMILES: COc1ccnc(C(=O)N[C@H]2COC[C@H](Cc3ccccc3)[C@@H](OCC(C)C)[C@H](C)OC2=O)c1OC(C)=O [Compound 9, 2-(((3S,7S,8R,9S)-7-benzyl-8-isobutoxy-9-methyl-2-oxo-1,5-dioxonan-3-yl)carbamoyl)-4-methoxypyridin-3-yl acetate]
- Disease Control COCHSA 1DP [2]: B (More than 0-Less than 80)
- Disease Control PHAKPA 1 DP [1]: A (80-100)
- Disease Control PHAKPA 2 DC [1]: A (80-100)

SMILES: COc1ccnc(C(=O)N[C@H]2COC[C@H](Cc3ccccc3)[C@@H](OCC(C)C)[C@H](C)OC2=O)c1OC(=O)OC(C)C [Compound 10, 2-(((3S,7S,8R,9S)-7-benzyl-8-isobutoxy-9-methyl-2-oxo-1,5-dioxonan-3-yl)carbamoyl)-4-methoxypyridin-3-yl isopropyl carbonate]
- Disease Control COCHSA 1DP [2]: B (More than 0-Less than 80)
- Disease Control PHAKPA 1 DP [1]: A (80-100)
- Disease Control PHAKPA 2 DC [1]: A (80-100)

SMILES: COc1ccnc(C(=O)N[C@H]2COC[C@H](Cc3ccccc3)[C@@H](OC3CCCC3)[C@H](C)OC2=O)c1OC(C)=O [Compound 107]
- Disease Control RHYNSE 1DP [3]: A (80-100)

SMILES: COc1ccnc(C(=O)N[C@H]2COC[C@H](Cc3ccccc3)[C@@H](OC3CCCC3)[C@H](C)OC2=O)c1OCOC(=O)C(C)C [Compound 108]
- Disease Control RHYNSE 1DP [3]: A (80-100)
- Disease Control PHAKPA 1 DP [1]: A (80-100)
- Disease Control PHAKPA 2 DC [1]: A (80-100)
